Results published in paper PMC9780703, “Unconventional interactions of the TRPV4 ion channel with beta-adrenergic receptor ligands” (Life Science Alliance, 2022).
pKd: −log10 of the molar value. Structures can show the parent of a compound that is named as a salt. Where two headings read alike, the source gives them in different places.

Tests used:
Type in all cases: cell-based
TRPV4 [1] = biological target: T1, TRPV4 (Homo sapiens, UniProt Q9HBA0); experiment: outside-out patch clamp of HEK293 cells expressing hTRPV4, dose-response, single-channel recordings and site-directed mutagenesis (apparent KD from Hill fit)
T1 construct: full-length wild type, transiently transfected HEK293, outside-out patches
T1 sequence (Q9HBA0 whole entry): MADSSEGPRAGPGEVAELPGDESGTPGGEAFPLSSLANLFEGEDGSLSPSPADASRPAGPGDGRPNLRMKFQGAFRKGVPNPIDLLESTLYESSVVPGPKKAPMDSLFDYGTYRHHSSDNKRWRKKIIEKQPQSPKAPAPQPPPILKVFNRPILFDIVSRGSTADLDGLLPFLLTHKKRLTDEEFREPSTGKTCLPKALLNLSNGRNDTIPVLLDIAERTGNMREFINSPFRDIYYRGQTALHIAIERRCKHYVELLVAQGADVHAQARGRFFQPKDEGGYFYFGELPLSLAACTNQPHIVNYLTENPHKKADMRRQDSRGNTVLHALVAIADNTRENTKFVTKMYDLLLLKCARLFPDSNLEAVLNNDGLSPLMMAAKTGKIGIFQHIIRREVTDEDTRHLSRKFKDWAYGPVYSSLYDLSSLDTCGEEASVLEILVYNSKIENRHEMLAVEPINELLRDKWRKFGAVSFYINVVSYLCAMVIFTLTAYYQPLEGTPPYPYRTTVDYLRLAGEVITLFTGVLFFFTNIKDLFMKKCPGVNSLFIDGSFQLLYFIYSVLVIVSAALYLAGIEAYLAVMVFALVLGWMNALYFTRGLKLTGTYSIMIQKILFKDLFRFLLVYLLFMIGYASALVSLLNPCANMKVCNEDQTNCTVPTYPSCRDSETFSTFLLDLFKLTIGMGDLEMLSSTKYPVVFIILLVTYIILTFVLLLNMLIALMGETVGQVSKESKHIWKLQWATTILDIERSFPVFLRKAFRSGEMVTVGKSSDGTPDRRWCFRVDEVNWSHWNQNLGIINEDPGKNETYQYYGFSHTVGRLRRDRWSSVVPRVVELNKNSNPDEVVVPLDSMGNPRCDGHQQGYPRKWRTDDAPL

TRPV4 [2] = biological target: T1, TRPV4; experiment: outside-out patch clamp of HEK293 cells expressing hTRPV4, inhibition of GSK-activated currents, dose-response (apparent KD from Hill fit)
TRPV4 [3] = biological target: T1, TRPV4; experiment: outside-out patch clamp of HEK293 cells expressing hTRPV4, activation dose-response (KD from Hill fit)
TRPV4 [4] = biological target: T1, TRPV4; experiment: outside-out patch clamp of HEK293 cells expressing hTRPV4, % inhibition of GSK-activated current at […]
TRPV4 [5] = biological target: T1, TRPV4; experiment: as above; remark: listed apart in the source
TRPV4 [6] = biological target: T1, TRPV4; experiment: as above; remark: listed apart in the source
TRPV4 [7] = biological target: T1, TRPV4; experiment: as above; remark: listed apart in the source
TRPV4 [8] = biological target: T1, TRPV4; experiment: as above; remark: listed apart in the source

Compound: CC(C)(C)NCC(O)c1ccc(O)c(CO)c1 (racemic) [salbutamol, α1-[(tert-butylamino)methyl]-4-hydroxy-1,3-benzenedimethanol hemisulfate salt]
- pKd (TRPV4 [1]): 4.09

Compound: Cc1ccc(OC[C@H](O)[C@@H](C)NC(C)C)c2c1CCC2 (relative stereo) [ICI, [2R,3R]-rel-3-isopropylamino-1-[7-methylindan-4-yloxy]-butan-2-ol hydrochloride]
- pKd (TRPV4 [2]): 5.41

Compound: CC(C)C[C@H](NC(=O)c1cc2ccccc2s1)C(=O)N1CCN(C(=O)[C@H](CO)NS(=O)(=O)c2ccc(Cl)cc2Cl)CC1 [GSK, GSK1016790A]
- pKd (TRPV4 [3]): 7.00

Compound: CC(C)(C)NCC(O)c1cc(Cl)c(N)c(Cl)c1 (stereo not drawn) [clenbuterol, 4-amino-α-[t-butylaminomethyl]-3,5-dichlorobenzyl alcohol hydrochloride]
- inhibition at 500 µM (TRPV4 [4]): 71.7%

Compound: CC(C)NCC(O)c1ccc(O)c(O)c1 (centres unmarked) [isoprenaline, 1-[3′,4′-dihydroxyphenyl]-2-isopropylaminoethanol hydrochloride]
- inhibition at 500 µM (TRPV4 [5]): 51.6%

Compound: CC(C)(C)NC[C@H](O)c1ccc(O)c(CO)c1 [levalbuterol]
- inhibition at 500 µM (TRPV4 [6]): 42.6%

Compound: CC(C)NCC(O)c1cc(O)cc(O)c1 (stereo not drawn) [metaproterenol, α-[(isopropylamino)methyl]-3,5-dihydroxybenzyl alcohol hemisulfate salt]
- inhibition at 500 µM (TRPV4 [7]): 51.7%

Compound: CC(C)(C)NCC(O)c1cc(O)cc(O)c1 (centres unmarked) [terbutaline, 5-[2-[(1,1-dimethylethyl)amino]-1-hydroxyethyl]-1,3-benzenediol hemisulfate salt]
- inhibition at 500 µM (TRPV4 [8]): 54.4%
